Results from patent US12251422B2, “Compositions and methods for treating neurological and other disorders” (Rush University Medical Center, priority 2018, dated 2025).

Assays:
Tg-Tlr2−/− mice = test: Plaques and memory in 5×FAD mice null for Tlr2 (Tg-Tlr2−/−); type: in vivo, mouse; details: 0.1 mg/kg body wt/2 d intranasal, 30 d
Description: FIG. 24 (A-H). […] A) Tlr2−/− mice were bred with Tg (5×FAD mice) and representative PCR of Tlr2, App695 and Psen1 transgene DNA expression is shown for 6-month old non-Tg, Tg (5×FAD), Tg-Tlr2−/− (F7), and Tlr2−/− mice. Average body weight (B) and wet brain weight (C) of non-Tg, Tg, Tg-Tlr2−/−, and Tlr2−/− mice. For wet brain weight, the olfactory lobes and brainstem were removed. […] After 30 d of treatment, hippocampal sections were immunolabeled with 6E10 mAb (D). […] Mice were tested for Barnes maze (F, track plot; G, latency; H, number of errors made). Four mice (n=4) were used in each group. NS, not significant by two-sample t-tests.

[1] = target: T1, interaction between TLR4 and MyD88 (Mus musculus, UniProt Q9QUK6); test: MyD88 immunoprecipitation / TLR4 western blot in BV-2 microglial cells; type: cell-based; details: BV-2 cells, peptide preincubated 1 h, LPS for 1 h, serum-free
T1 construct: endogenous in cells; host or cells: BV-2 microglial cells
T1 sequence (Q9QUK6 26-835): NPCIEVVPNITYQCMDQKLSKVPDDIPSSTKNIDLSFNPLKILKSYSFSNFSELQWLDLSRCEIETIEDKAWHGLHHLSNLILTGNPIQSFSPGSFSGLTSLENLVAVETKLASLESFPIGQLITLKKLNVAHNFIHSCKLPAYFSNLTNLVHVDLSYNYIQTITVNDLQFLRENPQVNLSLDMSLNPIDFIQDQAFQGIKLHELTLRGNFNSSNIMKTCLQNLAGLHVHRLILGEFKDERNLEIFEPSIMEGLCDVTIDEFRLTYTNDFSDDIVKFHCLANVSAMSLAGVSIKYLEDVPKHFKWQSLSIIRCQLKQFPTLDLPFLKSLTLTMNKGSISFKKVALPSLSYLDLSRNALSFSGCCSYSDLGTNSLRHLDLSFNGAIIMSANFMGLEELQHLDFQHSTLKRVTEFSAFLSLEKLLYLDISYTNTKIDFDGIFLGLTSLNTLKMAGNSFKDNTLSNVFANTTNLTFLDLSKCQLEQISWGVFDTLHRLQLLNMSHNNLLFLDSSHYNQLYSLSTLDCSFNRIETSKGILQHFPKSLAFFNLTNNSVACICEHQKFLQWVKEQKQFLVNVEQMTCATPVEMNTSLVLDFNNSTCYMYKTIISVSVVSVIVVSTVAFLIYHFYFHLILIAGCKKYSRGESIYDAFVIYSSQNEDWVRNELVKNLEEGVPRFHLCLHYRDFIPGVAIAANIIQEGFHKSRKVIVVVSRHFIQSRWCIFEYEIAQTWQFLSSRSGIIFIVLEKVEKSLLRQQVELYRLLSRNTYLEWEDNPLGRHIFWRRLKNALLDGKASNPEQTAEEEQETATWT
Description: FIG. 3(A-L). Selective disruption of TLR2 and MyD88 interaction by wtTIDM. In silico analyses of interactions of wtTIDM with TLR1, TLR4, TLR5, TLR6, TLR7, and TLR9. A rigid body interaction analyses were performed in pydock in silico analysis tool. […] G) BV-2 microglial cells preincubated with WtTIDM and mTIDM peptides for 1 h were stimulated with 1 μM fibrillar Aβ1-42 under serum-free condition. After 1 h, cellular extracts were immunoprecipitated with anti-MyD88 antibody followed by western blot of immunoprecipitates for TLR2. As control, cellular extracts were immunoprecipitated with normal IgG. Input was also immunoblotted with TLR2 and MyD88. H) Bands were scanned and values (TLR2/Input) presented as relative to control (n=2 replicates/condition in 3 independent experiments). Results were analyzed by two-sample t-tests. I) BV-2 microglial cells preincubated with wtTIDM and mTIDM peptides for 1 h were stimulated with LPS under serum-free condition. After 1 h, cellular extracts were immunoprecipitated with anti-MyD88 antibody followed by western blot of immunoprecipitates for TLR4. As control, cellular extracts were immunoprecipitated with normal IgG. Input was also immunoblotted with TLR4 and My D88. […] Results were analyzed by two-sample t-tests. […] Results were analyzed by two-sample t-tests.

p65 and p50 = test: Nuclear translocation of p65 and p50 in BV-2 microglial cells (Western blot); type: cell-based; details: 10 μM peptide 1 h, 1 μM fibrillar Aβ1-42
Description: FIG. 15 (A-F). Effect of wtTIDM peptide on fibrillar Aβ- and LPS-induced nuclear translocation of p65 and p50 in microglial cells. BV-2 microglial cells preincubated with 10 μM wtTIDM peptide for 1 h were stimulated with either 1 μM fibrillar Aβ1-42 (A-C) or 1 μg/ml LPS (D-F) under serum-free condition. At different minute intervals, levels of p65 and p50 (A, fibrillar Aβ; D, LPS) were monitored in nuclear extracts by Western blot. Histone H3 was run as a loading control. Bands were scanned and values of p65/H3 (B & E) and p50/H3 (C & F) are presented as relative to control (n=2 replicates/condition in 3 independent experiments). ap<0.05, bp<0.001 vs control; cp<0.01 vs 30 min stimulation; dp<0.05 vs 15 min stimulation; NS, not significant by two-sample t-tests.

**Q.** What does the source list for `CC[C@H](C)[C@H](NC(=O)[C@H](CCCCN)NC(=O)[C@@H](NC(=O)[C@H](CCC(N)=O)NC(=O)[C@H](CCCNC(=N)N)NC(=O)[C@@H](N)CC(=O)O)[C@@H](C)CC)C(=O)N[C@@H](Cc1c[nH]c2ccccc12)C(=O)N[C@@H](Cc1ccccc1)C(=O)N[C@@H](CCC(N)=O)C(=O)N[C@@H](CC(N)=O)C(=O)N[C@@H](CCCNC(=N)N)C(=O)N[C@@H](CCCNC(=N)N)C(=O)N[C@@H](CCSC)C(=O)N[C@@H](CCCCN)C(=O)N[C@@H](Cc1c[nH]c2ccccc12)C(=O)N[C@@H](CCCCN)C(=O)N[C@@H](CCCCN)C(=O)N1CCC[C@H]1C(=O)NCC(=O)N[C@@H](C)C(=O)N[C@@H](Cc1c[nH]cn1)C(=O)N[C@@H](CCC(N)=O)C(=O)N[C@@H](CCCCN)C(=O)O` [wtTIDM, drqikiwfqnrrmkwkkPGAHQK]?
**A.** reduction of plaque load and improvement of spatial learning and memory in Tg-Tlr2−/− mice (Tg-Tlr2−/− mice): remained unable to do so; effect on LPS-increased interaction between TLR4 and MyD88 [1]: had no effect; inhibition of nuclear translocation of p65 and p50, fibrillar Aβ1-42 (p65 and p50): inhibited
